Test [1] relates to human umbilical vein endothelial cells. The test is described as follows: intracellular protein oxidation (Oxyblot) under menadione oxidative stress. To be noted: after 0.5 hours and 6 hours of treatment; mitochondria after menadione vs menadione only; menadione vs untreated. The format is cell-based. The source says:
(§1) The term “protein oxidation detection kit” disclosed in the present invention refers to methods for detecting protein oxidation in cells. For example, the Oxyblot Oxidized Protein Detection Kit S7150 (Chemicon) used in the examples of the present invention detects oxidized proteins by labeling oxidized proteins in a sample with 2,4-dinitrophenylhydrazine (DNPH), separating proteins in the sample with 12% SDS polyacrylamide gel electrophoresis, transferring the separated proteins onto a transfer membrane, such as a nitrocellulose membrane, immersing the transfer membrane in buffer containing anti-DNP primary antibody (1:150) for about 2 hours, then immersing the transfer membrane in buffer containing secondary antibody (1:300) at room temperature for about an hour, and then observing expression of oxidized proteins in the sample.
Human umbilical vein endothelial cells were divided into three groups. The human umbilical vein endothelial cells of the first group remained untreated. […] Protein oxidation in each group was detected after 0.5 hours and 6 hours of treatment with a commercially available protein oxidation assay kit (Oxyblot Oxidized Protein Detection Kit S7150, Chemicon), and oxidative stress in cells of each group was further analyzed with a software (Labwork software, UVP).

The subject of test [2] is rat model of acute respiratory distress syndrome. The test can be described thus: arterial oxygen saturation in rat model of acute respiratory distress syndrome. The format is in vivo. To be noted: ARDS rats; melatonin 50 mg/kg i.p. at 6th and 24th hour; mitochondria 1500 μg per rat i.v. at 6th hour. The procedure:
(§2) A total of forty (40) specific pathogen free (SPF) adult male SD rats, each weighing 350-400 g (Charles River Technology, BioLASCO Biotechnology Co., Ltd., Taiwan) were used in the examples. The SD rats were randomly divided into 5 groups: the first group was the normal control group; the second group was the rat model of acute respiratory distress syndrome; the third group was the rat model of acute respiratory distress syndrome intraperitoneally injected with melatonin, with each dose of 50 mg per kilogram, at the 6th and the 24th hour after breathing pure oxygen; the fourth group was the rat model of acute respiratory distress syndrome intravenously injected mitochondria, with a dose of 1500 μg per rat, at the 6th hour after breathing pure oxygen; the fifth group was the rat model of acute respiratory distress syndrome administered melatonin and mitochondria in the same manners, frequency, and doses as those of the third group and the fourth group, respectively.
Rats in each group in Example 5 were anesthetized. Arterial blood was taken from the carotid arteries of rats in each group, and the oxygen saturation of the blood samples was analyzed.
The rat model of acute respiratory distress syndrome was divided into two groups. One group was given 750 μg of mitochondria per rat, and the other group was given 1500 μg of mitochondria per rat. […]

For test [3] the test system is unchanged. The test is described as follows: right ventricular systolic pressure in rat model of acute respiratory distress syndrome. The format is in vivo. To be noted: ARDS rats; melatonin 50 mg/kg i.p. at 6th and 24th hour; mitochondria 1500 μg per rat i.v. at 6th hour. Here is the method: (§3) A total of forty (40) specific pathogen free (SPF) adult male SD rats, each weighing 350-400 g (Charles River Technology, BioLASCO Biotechnology Co., Ltd., Taiwan) were used in the examples. […]
Then, rats in each group were provided air with positive pressure ventilation (180 ml per minute) using small animal ventilators (SAR-830/A, CWE, Inc., USA) and intubation. […] Signals of right ventricular systolic pressure were measured with a pressure transducer (UFI, model 1050, CA, USA) and transmitted to bridge amplifiers (ML866 PowerLab 4/30 Data Acquisition Systems. ADlnstruments Pty Ltd., Castle Hill, NSW, Australia) to obtain the right ventricular systolic pressure of rats in each group as a reference for pulmonary hypertension. In addition, femoral artery systolic blood pressure of rats in each group was measured. The right ventricular systolic pressure and the femoral artery systolic blood pressure were analyzed by software (Labchart, ADlnstrument). […]

Test [4] shares this test system. The test is described as follows: lung sections: immunofluorescence and transmission electron microscopy of mitochondria. The format is in vivo. To be noted: compared with second group (ARDS). The procedure:
as §2
The left lungs of rats in each group were inflated with constant airway pressure (15-20 mmHg) and embedded with OCT (Tissue-Tek) for immunohistochemical staining. The right lungs of rats in each group were fixed with 4% paraformaldehyde and 0.1% glutaraldehyde phosphate buffer solution, then embedded in paraffin, and stained with hematoxylin and eosin. […]

The test system is the same in test [5]. The test is described as follows: MPO+, CD40+, CD11b/c+ cells in BAL fluid by flow cytometry. It is filed as in vivo. To be noted: ARDS rats; doses of Example 5. Here is the method: as §2
(§4) BAL fluid was obtained from rats in each group by bronchoalveolar lavage (BAL). SDS-PAGE and Coomassie Blue staining were used to detect the concentration of albumin in the BAL fluid of each group, and the results are shown in FIG. 11. Furthermore, the number of MPO+, CD40+, and CD11b/c+ cells in the BAL fluid of each group was calculated by flow cytometry.
On the technique in general: Flow cytometry measures light scatter and fluorescence of single cells or particles in a stream.

Test [6] has the same test system. The test is described as follows: western blotting / Oxyblot of lung parenchyma protein extracts. The format is in vivo.
From the text: as §1, §2
The protein extracts of the left lungs of rats in each group were prepared. The same amount (10 to 30 μg) of protein extracts of rats in each group was detected by western blotting and Oxyblot Oxidized Protein Detection Kit S7150, Chemicon, respectively. The results were observed by enhanced chemiluminescence (ECL, Amersham Biosciences), and the performance of each protein was quantified by software (Labwork software, UVP).
Specifically, the procedure and conditions of western blotting were as follows: Proteins were separated by SDS gel electrophoresis with a gradient of 8-10% polyacrylamide solution. The blocking agent used was a T-TBS solution containing 5% skimmed milk powder and 0.05% Tween. Primary antibodies were against the following proteins respectively: NOX-1 (1:1500, Sigma), NOX-2 (1:750, Sigma), NOX-4 (1:1000, Abcam), or interacted with polyclonal antibodies that were against the following proteins: tumor necrosis factor α (1:1000, Cell Signaling), nuclear factor κB (1:250, Abcam), matrix metalloproteinase 9 (1:3000, Abcam), transforming growth factor β (1:1000, Abcam), Smad3 (1:500, Cell Signaling), bone morphogenetic protein-2 (1:100, Abcam), Smad 1/5 (1:500, Cell Signaling), GR (1:1000, Abcam), GPx (1:1000, Abcam), Cytochrome C (1:2000, BD), NQO 1 (NAD(P)H: quinone oxidoreductase 1; 1:1000, Abcam), Heme oxygenase-1 (1:250, Abcam), caspases 3 (1:1000, Cell Signaling), and PARP (poly (ADP-ribose) polymerase; 1:1000, Cell Signaling). Secondary antibodies conjugated to HRP enzymatic fluorescence are goat antibody against mouse IgG, goat antibody against rat IgG, or goat antibody against rabbit IgG.

Test [7] has the same test system. The test can be described thus: lung histology (hematoxylin and eosin): alveolar sacs and crowded area. It is filed as in vivo. The note with it: per high power field 100×; ARDS rats; doses of Example 5.
From the text: as §3
The integral of the crowded area in the lung tissue of rats in each group was further calculated by the following criteria: 0 represents no overlap; 1 represents less than 15% of crowded area in each of the high magnification fields; 2 represents 15-25% of crowded area in each of the high magnification fields; 3 represents 25-50% of crowded area in each of the high magnification fields; 4 represents 50-75% of crowded area in each of the high magnification fields; 5 represents 75-100% of crowded area in each of the high magnification fields. […]

Test [8] has the same test system. The test is described as follows: immunostaining of lung sections for F4/80, γ-H2AX, Cx43, heme oxygenase-1. It is filed as in vivo. To be noted: positive cells per HPF 400×; ARDS rats. The procedure: as §2
The paraffin sections of the lung tissue of each group were rehydrated with 3% hydrogen peroxide for 30 minutes, followed by the addition of a high-performance Immuno-Block reagent (BioSB) at room temperature for 30 minutes. The sections were then treated with the specific primary antibody of the following proteins, respectively: F4/80 (1:100, Abcam), γ-H2AX (1:500, Abcam), heme oxygenase-1 (HO-1; 1:2000, Abcam), and Cx43. Immunohistochemical staining was performed on the sections of the lung tissue of each group to observe the expression of F4/80, γ-H2AX, heme oxygenase-1, and Cx43 in cells. In addition, the expression of the proteins mentioned above in the lung tissue sections of each group was quantified, and the results are shown in FIG. 20 to FIG. 23. The red fluorescence represents the exogenous mitochondria labeled by mito-tracker, and the green fluorescent represents the mitochondria within the lungs. […]

The test system is the same in test [9]. The test can be described thus: albumin in BAL fluid (SDS-PAGE, Coomassie Blue). The format is in vivo. To be noted: ARDS rats; doses of Example 5. The procedure:
as §2, §4

Molecules are shown by their SMILES.

Take `CC1=CC(=O)c2ccccc2C1=O` [menadione]: the “protein oxidation in cells” value in [1] is “increased significantly”.

On to `COc1ccc2[nH]cc(CCNC(C)=O)c2c1` [melatonin], for which, in test [2], the “oxygen saturation (group comparison)” value is recorded as “significantly higher than that of the fourth group”. The “right ventricular systolic pressure (group comparison)” value in test [3] is reported as “significantly reduced”. Also, the “mitochondrial morphology in lung tissue (size, cristae; TEM)” value in test [4] was “smaller, and there are cristae in the mitochondrial inner membranes”. The “number of inflammatory cells (MPO+, CD40+, CD11b/c+) in BAL fluid” value in test [5] is recorded as “significantly lower than those in the second group”. The “oxidative stress (oxidized proteins)” value in test [6] (Oxyblot) was “significantly lower than that of the second and fourth groups”. For the same compound, in test [6] (western blot), the “expression level of GPx” value is “significantly higher than those of the second and fourth groups”; the “expression level of GR” value is “significantly higher than those of the second and fourth groups”; the “expression level of Heme oxygenase-1” value was “significantly higher than those of the second and fourth groups”; the “expression level of NOX-1” value is “significantly lower than those of the second and fourth groups”. For the same compound, in test [6] (western blot), the “expression level of NOX-2” value was “significantly lower than those of the second and fourth groups”; the “expression level of NOX-4” value is “significantly lower than those of the second and fourth groups”; the “expression level of NQO 1” value was “significantly higher than those of the second and fourth groups”; the “expression level of Smad3” value was “significantly lower than those of the second and fourth groups”. For the same compound, in test [6] (western blot), the “expression level of activated PARP” value was “significantly lower than those of the second and fourth groups”; the “expression level of activated caspase-3” value was “significantly lower than those of the second and fourth groups”; the “expression level of cytochrome c (cytosol)” value is “significantly lower than those of the second and fourth groups”; the “expression level of matrix metalloproteinase 9” value is “significantly lower than those of the second and fourth groups”. Besides, in test [6] (western blot), the “expression level of nuclear factor κB” value is “significantly lower than those of the second and fourth groups”; the “expression level of transforming growth factor β” value was “significantly lower than those of the second and fourth groups”; the “expression level of tumor necrosis factor α” value is “significantly lower than those of the second and fourth groups”. Moreover, in test [7], the “number of alveolar sacs” value is on record as “significantly higher than that in the second group”. In [8], the “expression of F4/80 in lung sections” value was “significantly lower than the fourth group”, the “expression of heme oxygenase-1 in lung sections” value is recorded as “significantly higher then the second group” and the “expression of γ-H2AX in lung sections” value was “significantly lower than the fourth group”. In addition, the “albumin concentration in BAL fluid” value in test [9] is reported as “significantly lower than those in the second group”.

Values taken from patent US10420798B2, “Method for treating lung injury and/or diseases related to lung injury” (TAIWAN MITOCHONDRION APPLIED TECHNOLOGY CO., LTD, priority 2014, dated 2019).
